From publication PMC9826610 (Journal of medicinal chemistry, 2022)
≈ marks a conversion by molar mass, not a printed value. Read-outs that look alike come from different tables or passages of the source.

What was measured:
[1] = test system: methicillin-resistant S. aureus (FPR3757); assay: MIC against methicillin-resistant S. aureus; assay type: cell-based, Staphylococcus aureus; conditions: for MIC: complete inhibition of observable growth, Mueller–Hinton broth
[2] = test system: S. aureus (strain USA300); assay: Transmission electron microscopy of treated MRSA; assay type: cell-based; conditions: 1× MIC
S. aureus (strain COL) = assay: Fluorescence microscopy of membrane, cell wall and DNA in MRSA; assay type: cell-based; conditions: 1× MIC, 30 min
sheep erythrocytes = conditions: washed sheep erythrocytes; at 32 μg/mL; compared to Triton X-100 (100% lysis)
C. albicans = assay: Antimicrobial susceptibility panel: MIC against C. albicans; assay type: cell-based; conditions: Candida albicans, SC5314
MRSA = MRSA MIC in the presence of serum; assay type: cell-based; conditions: Staphylococcus aureus
[3] = Single-dose in vivo pharmacokinetics; conditions: mice
[4] = Kinetic aqueous solubility by LC-MS/MS; conditions: pH 7.4

Compound	MIC ([1]; Staphylococcus aureus) [µg/mL]	further results
COc1ccc2c(O)cc(C(F)(F)F)nc2c1 [Compound 9]	320 to 640 (≈ 1320 to 2630 µM)	–
Oc1cc(C(F)(F)F)nc2cc(OC(F)(F)F)ccc12 [Compound 3]	4 to 8 (≈ 13.5 to 26.9 µM)	–
O=c1cc(C(F)(F)F)[nH]c2cc(C(F)(F)F)cc(N[C@H]3CC[C@H](C(F)(F)F)CC3)c12 [Compound 120]	–	cell morphology by TEM [2]: mesosome-like membrane inclusions; FM 4–64 membrane staining by fluorescence microscopy (S. aureus (strain COL)): membrane defects
CCc1ccc2c(O)cc(C(F)(F)F)nc2c1 [Compound 8]	320 to 640 (≈ 1330 to 2650 µM)	–
Fc1ccc2c(Nc3ccc(Cl)c(Cl)c3)cc(C(F)(F)F)nc2c1 [Compound 74]	0.5 to 2 (≈ 1.33 to 5.33 µM)	–
FC(F)(F)Oc1cccc(Nc2cc(C(F)(F)F)nc3cc(OC(F)(F)F)ccc23)c1 [Compound 33]	0.5 to 1 (≈ 1.1 to 2.19 µM)	–
FC(F)(F)c1ccc2c(Nc3cc(Cl)ccn3)cc(C(F)(F)F)nc2c1 [Compound 48]	–	loss of activity (MIC) relative to 31 [1]: 8 fold
CSc1ccc2c(O)cc(C(F)(F)F)nc2c1 [Compound 10]	320 to 640 (≈ 1230 to 2470 µM)	–
Fc1ccc(Nc2nc(C(F)(F)F)nc3nc(C(F)(F)F)ccc23)cc1F [Compound 94, N-(3,4-Difluorophenyl)-2,7-bis(trifluoromethyl)pyrido[2,3-d]-pyrimidin-4-amine]	≥ 32	–
Fc1cccc(Nc2cc(C(F)(F)F)nc3cc(C(F)(F)F)ccc23)c1 [Compound 18]	4 to 16 (≈ 10.7 to 42.8 µM)	–
Fc1ccc2nc(C(F)(F)F)cc(Nc3ccc(C(F)(F)F)cn3)c2c1F [Compound 77]	16 to 32 (≈ 40.7 to 81.4 µM)	–
FC(F)(F)c1ccc2c(Nc3ccc(Cl)cc3)cc(C(F)(F)F)nc2c1 [Compound 17]	0.125 to 0.25 (≈ 0.32 to 0.64 µM)	–
Fc1cc2nc(C(F)(F)F)cc(Nc3ccc(C(F)(F)F)cn3)c2cc1F [Compound 78]	–	hemolysis (sheep erythrocytes): hemolysis
FC(F)(F)c1ccc2c(Nc3nccs3)cc(C(F)(F)F)nc2c1 [Compound 55]	1 to 2 (≈ 2.75 to 5.51 µM)	–
Fc1ccc2c(Nc3ccc(C(F)(F)F)cn3)cc(C(F)(F)F)nc2c1 [Compound 76]	0.5 to 2 (≈ 1.33 to 5.33 µM)	–
FC(F)(F)c1ccc2c(Nc3cccc(Cl)c3)cc(C(F)(F)F)nc2c1 [Compound 16]	0.125 to 0.25 (≈ 0.32 to 0.64 µM)	–
O=c1cc(C(F)(F)F)[nH]c2cc(F)cc(Nc3ccc(C(F)(F)F)cn3)c12 [Compound 122]	–	FM 4–64 membrane staining by fluorescence microscopy (S. aureus (strain COL)): membrane defects
O=c1cc(C(F)(F)F)[nH]c2cc(C(F)(F)F)cc(Nc3ccc(F)cn3)c12 [Compound 114]	0.125 to 2 (≈ 0.319 to 5.11 µM)	–
CSc1cccc(Nc2cc(C(F)(F)F)nc3cc(C(F)(F)F)ccc23)c1 [Compound 24]	0.25 to 0.5 (≈ 0.621 to 1.24 µM)	–
FC(F)(F)c1ccc2c(Nc3ccc(C(F)(F)F)nc3)cc(C(F)(F)F)nc2c1 [Compound 49]	–	MIC [1]: completely abolished activity
FC(F)(F)c1ccc(Nc2cc(N3CCNCC3)c3ccc(C(F)(F)F)cc3n2)nc1 [Compound 106]	4 to 8 (≈ 9.06 to 18.1 µM)	–
Oc1cc(C(F)(F)F)nc2c(C(F)(F)F)cccc12 [Compound 4]	2 to 4 (≈ 7.11 to 14.2 µM)	–
O=c1cc(C(F)(F)F)[nH]c2cc(C(F)(F)F)ccc12 [Compound 2, 2,7-Bis-(trifluoromethyl)quinolin-4-ol]	4 to 8 (≈ 14.2 to 28.5 µM)	–
O=c1cc(C(F)(F)F)[nH]c2cc(C(F)(F)F)cc(Nc3ccc(C(F)(F)F)cn3)c12 [Compound 111, 5-[(5-Trifluoromethylpyridin-2-yl)amino]-2,7-bis-(trifluoromethyl)quinolin-4(1H)-one]	–	MIC (C. albicans): 256 µg/mL (≈ 580 µM); cell morphology by TEM [2]: mesosome-like membrane inclusions; MIC (MRSA; read-out: MIC + 10% human serum): 4 to 8 µg/mL; MIC (MRSA; read-out: MIC + 10% mouse serum): 4 to 8 µg/mL; MIC (MRSA; read-out: MIC + 30% FBS): 4 to 8 µg/mL; hemolysis (sheep erythrocytes): devoid of hemolytic activity; time total plasma concentrations stay above the MIC (<0.0625 μg/mL) ([3]; following i.v. dosing at 0.5 mg/kg): ~9 h; time total plasma concentrations stay above the MIC (<0.0625 μg/mL) ([3]; following oral dosing at 10 mg/kg): ~9 h; solubility at 6 h [4]: 2.4 ± 0.4 ng/mL (≈ 0.00544 µM)
FC(F)(F)c1ccc(Nc2cc(N3CCOCC3)c3ccc(C(F)(F)F)cc3n2)nc1 [Compound 108]	4 to 8 (≈ 9.04 to 18.1 µM)	–
Fc1ccc(Nc2cc(C(F)(F)F)nc3cc(C(F)(F)F)ccc23)cc1F [Compound 21]	0.125 to 0.25 (≈ 0.319 to 0.637 µM)	–
FC(F)(F)c1ccc(Nc2cc(C(F)(F)F)nc3cc(C(F)(F)F)ccc23)nc1 [Compound 31, 2,7-Bis(trifluoromethyl)-4-[5-(trifluoromethyl)pyridin-2-yl-amino]quinoline]	–	cell morphology by TEM [2]: mesosome-like membrane inclusions; MIC (MRSA; read-out: MIC + 10% FBS): 4 to 8 µg/mL
FC(F)(F)c1ccc(Nc2cc(N3CCNCC3)nc3cc(C(F)(F)F)ccc23)nc1 [Compound 105, 2-(Piperazin-1-yl)-7-(trifluoromethyl)-4-{[5-(trifluoro-methyl)-pyridin-2-yl]amino}quinoline]	0.5 to 1 (≈ 1.13 to 2.27 µM)	MIC [1]: 0.5 to 1 µg/mL
FC(F)(F)Oc1ccc2c(Nc3ccc(Cl)c(Cl)c3)cc(C(F)(F)F)nc2c1 [Compound 32]	0.5 to 1 (≈ 1.13 to 2.27 µM)	–
FC(F)(F)Oc1ccc2c(Nc3ccc(C(F)(F)F)cn3)cc(C(F)(F)F)nc2c1 [Compound 34]	0.5 to 1 (≈ 1.13 to 2.27 µM)	–
